The record followed here is PMC5421785, “Citrullination only infrequently impacts peptide binding to HLA class II MHC” (PLoS ONE, 2017).

Where two headings read alike, the source gives them in different places. Square brackets hold non-standard residues; d marks the D form. Ends that are not written are not given here. Peptide text beside a SMILES is read from it. Cit = NC(=O)NCCC[C@H](N)C(=O)O

One test concerns the target T1, HLA-DRB1*01:01 (Homo sapiens, UniProt P01903+P01911, A100R/D57E/F55L/F60I/F76Y/I96L/L162R/M171V/P40L/Q125E/R42F/V115G/Y59C).
T1 construct: EBV transformed homozygous cell lines were used as sources of MHC molecules; endogenous in cells; host or cells: EBV transformed homozygous cell lines
The test can be described thus: HLA class II peptide binding, inhibition of radiolabeled peptide binding to purified MHC.

Another test addresses T2, HLA-DRB1*04:01 (Homo sapiens, UniProt P01903+P01911, A100K/A169T/F76Y/I96L/K127E/L162R/M171V/N62H/P40V/Q125Y/R42H/S133A/S149N/S66Y/V115G/V209L/W38E).
T2 construct: EBV transformed homozygous cell lines were used as sources of MHC molecules; endogenous in cells; host or cells: EBV transformed homozygous cell lines
The test is described as above.

[1] abbreviates: citrullinated 15-mer peptide (X = citrulline), purified HLA-DRB1*01:01, read-out: DRB1*01:01 binding capacity, Cit peptide (IC50 nM).
Setting [2] is: citrullinated 15-mer peptide (X = citrulline), purified HLA-DRB1*04:01, read-out: DRB1*04:01 binding capacity, Cit peptide (IC50 nM).
Setting [3] is: read-out: DRB1*01:01 binding capacity, WT peptide (IC50 nM).
Setting [4] is: read-out: DRB1*04:01 binding capacity, WT peptide (IC50 nM).
Where [5] appears, read: wild-type (unmodified Arg) 15-mer peptide, purified HLA-DRB1*01:01, read-out: DRB1*01:01 binding capacity, WT peptide (IC50 nM).
Where [6] appears, read: wild-type (unmodified Arg) 15-mer peptide, purified HLA-DRB1*04:01, read-out: DRB1*04:01 binding capacity, WT peptide (IC50 nM).

On to `CC[C@H](C)[C@H](NC(=O)[C@H](CC(=O)O)NC(=O)[C@@H](NC(=O)[C@@H](NC(=O)[C@@H]1CCCN1C(=O)[C@H](CC(C)C)NC(=O)[C@H](CCCNC(N)=O)NC(=O)[C@H](CO)NC(=O)[C@@H](NC(=O)[C@H](CCCCN)NC(=O)[C@H](CCC(N)=O)NC(=O)[C@H](CO)NC(=O)[C@H](CCCNC(=N)N)NC(=O)[C@H](Cc1ccc(O)cc1)NC(=O)[C@@H](N)CCC(=O)O)[C@@H](C)O)[C@@H](C)CC)[C@@H](C)CC)C(=O)O` [EYRSQKTSXLPIIDI] (H-EYRSQKTS[Cit]LPIIDI-OH), for which the IC50 was determined as 6.9 nM at HLA-DRB1*01:01 (citrullinated peptide as listed (X at Cit position), read-out: DRB1*01:01 binding capacity Cit peptide (IC50 nM)); 14 nM at HLA-DRB1*01:01 (value of the wild-type (non-citrullinated) counterpart of the listed peptide, read-out: DRB1*01:01 binding capacity WT peptide (IC50 nM)); 316 nM at HLA-DRB1*04:01 (citrullinated peptide as listed (X at Cit position), read-out: DRB1*04:01 binding capacity Cit peptide (IC50 nM)); 314 nM at HLA-DRB1*04:01 (value of the wild-type (non-citrullinated) counterpart of the listed peptide, read-out: DRB1*04:01 binding capacity WT peptide (IC50 nM)).

Regarding `CC[C@H](C)[C@H](NC(=O)[C@H](CCC(=O)O)NC(=O)[C@H](CC(=O)O)NC(=O)[C@H](CCC(N)=O)NC(=O)[C@H](CC(C)C)NC(=O)[C@H](CCCNC(N)=O)NC(=O)CNC(=O)[C@@H](NC(=O)[C@@H](N)[C@@H](C)O)[C@@H](C)CC)C(=O)N[C@@H](CCC(N)=O)C(=O)N[C@@H](CC(N)=O)C(=O)N[C@@H](CCSC)C(=O)N[C@@H](CCCCN)C(=O)N[C@@H](CCC(=O)O)C(=O)N[C@@H](CCC(=O)O)C(=O)O` [TIGXLQDEIQNMKEE] (H-TIG[Cit]LQDEIQNMKEE-OH), the IC50 was more than 40000 nM on HLA-DRB1*01:01 (setting [1]) and 31800 nM at HLA-DRB1*04:01 (setting [2]).

Regarding `C[C@H](NC(=O)CNC(=O)[C@H](CCC(N)=O)NC(=O)[C@@H]1CCCN1C(=O)CNC(=O)[C@@H]1CCCN1C(=O)[C@@H]1CCCN1C(=O)CNC(=O)[C@H](CCCNC(N)=O)NC(=O)[C@@H]1CCCN1C(=O)CNC(=O)[C@@H]1CCCN1C(=O)[C@H](Cc1ccccc1)NC(=O)CNC(=O)[C@@H]1CCCN1)C(=O)O` [PGFPGPXGPPGPQGA] (H-PGFPGP[Cit]GPPGPQGA-OH), the IC50 at HLA-DRB1*01:01 (citrullinated 15-mer peptide (X = citrulline), […], read-out: DRB1*01:01 binding capacity, Cit peptide (IC50 nM)) was more than 40000 nM; on HLA-DRB1*04:01 (citrullinated 15-mer peptide (X = citrulline), […], read-out: DRB1*04:01 binding capacity, Cit peptide (IC50 nM)) it was 37800 nM.

Consider TAALRDVRQQYESVA [Vimentin 266 WT], for which the results for the IC50 at HLA-DRB1*01:01 (setting [3]) and at HLA-DRB1*04:01 (setting [4]) were 771 nM and 6320 nM, respectively.

With `C[C@H](NC(=O)CNC(=O)[C@@H]1CCCN1C(=O)[C@@H]1CCCN1C(=O)CNC(=O)[C@H](CCC(N)=O)NC(=O)[C@H](C)NC(=O)CNC(=O)[C@H](CCCNC(N)=O)NC(=O)[C@H](C)NC(=O)CNC(=O)[C@H](CCCCN)NC(=O)[C@@H]1CCCN1C(=O)CNC(=O)[C@@H](N)[C@@H](C)O)C(=O)O` [TGPKGAXGAQGPPGA] (H-TGPKGA[Cit]GAQGPPGA-OH), the IC50 on HLA-DRB1*01:01 (setting [1]) was 2690 nM; on HLA-DRB1*04:01 (setting [2]), more than 40000 nM.

In the case of LLAELEQLKGQGKSR [Vimentin 131 WT], the IC50 is 248 nM at HLA-DRB1*01:01 (setting [3]) and more than 40000 nM on HLA-DRB1*04:01 (setting [4]).

Turning to `CSCC[C@H](NC(=O)[C@H](CCCNC(N)=O)NC(=O)[C@H](CCCNC(=N)N)NC(=O)[C@H](Cc1ccc(O)cc1)NC(=O)[C@H](CO)NC(=O)[C@H](CO)NC(=O)[C@H](CO)NC(=O)[C@H](CO)NC(=O)[C@@H](N)C(C)C)C(=O)N[C@@H](Cc1ccccc1)C(=O)NCC(=O)NCC(=O)N1CCC[C@H]1C(=O)NCC(=O)N[C@H](C(=O)O)[C@@H](C)O` [VSSSSYRXMFGGPGT] (H-VSSSSYR[Cit]MFGGPGT-OH), the IC50 on HLA-DRB1*01:01 (citrullinated 15-mer (X), purified MHC, inhibition of radiolabeled peptide binding, dash = IC50 >40,000 nM, read-out: DRB1*01:01 binding capacity, Cit peptide (IC50 nM)) is 60 nM; on HLA-DRB1*04:01 (citrullinated 15-mer (X), purified MHC, inhibition of radiolabeled peptide binding, dash = IC50 >40,000 nM, read-out: DRB1*04:01 binding capacity, Cit peptide (IC50 nM)) it was 974 nM.

For the compound THSKRTLLIKTVETR [Vimentin 436 WT], the IC50 at HLA-DRB1*01:01 (setting [5]) was 109 nM; on HLA-DRB1*04:01 (setting [6]) it was 6220 nM.

Take RQVQSLTCEVDALKG [Vimentin 321 WT]: the results for the IC50 on HLA-DRB1*01:01 (setting [5]) and on HLA-DRB1*04:01 (setting [6]) were 2730 nM and 9140 nM, respectively.

For the compound `CSCC[C@H](NC(=O)[C@H](CCC(=O)O)NC(=O)[C@H](CCCNC(N)=O)NC(=O)[C@H](CCSC)NC(=O)[C@H](CCC(N)=O)NC(=O)[C@H](CCCNC(=N)N)NC(=O)[C@H](CCC(=O)O)NC(=O)[C@H](CC(C)C)NC(=O)[C@H](CO)NC(=O)[C@H](CCC(=O)O)NC(=O)[C@H](CC(N)=O)NC(=O)[C@@H](N)[C@@H](C)O)C(=O)N[C@@H](CCC(=O)O)C(=O)N[C@@H](CCC(=O)O)C(=O)N[C@@H](CC(N)=O)C(=O)O` [TNESLERQMXEMEEN] (H-TNESLERQM[Cit]EMEEN-OH), the IC50 at HLA-DRB1*01:01 (setting [1]) was 29700 nM; on HLA-DRB1*04:01 (setting [2]), more than 40000 nM.

In the case of `C[C@H](NC(=O)CNC(=O)[C@H](C)NC(=O)[C@@H]1CCCN1C(=O)CNC(=O)[C@@H](NC(=O)[C@H](CCCNC(=N)N)NC(=O)CNC(=O)[C@H](CCCNC(N)=O)NC(=O)[C@@H](N)CCC(=O)O)[C@@H](C)O)C(=O)N[C@@H](C)C(=O)NCC(=O)N[C@@H](C)C(=O)N[C@@H](CCCNC(=N)N)C(=O)NCC(=O)O` [EXGRTGPAGAAGARG] (H-E[Cit]GRTGPAGAAGARG-OH), the results for the IC50 at HLA-DRB1*01:01 (setting [1]) and at HLA-DRB1*04:01 (setting [2]) were 1620 nM and more than 40000 nM, respectively.
